Reference: PubChem BioAssay (NCI)
Several values for one entry are separate records, joined by “and”; a condition that tells them apart may be missing. Equal entries are not always repeated.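 Test compounds were applied to cells in 96-well plates for 48 hours at 5 doses. GI50 marks 50% less growth. TGI: total growth inhibition.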

How the values were obtained:
Test in all cases: inhibition of tumour cell growth, NCI panel, 48 h
BT-549 breast = test system: BT-549 breast
T-47D breast = test system: T-47D breast
U251 CNS = test system: U251 CNS
MALME-3M melanoma = test system: MALME-3M melanoma
ACHN renal = test system: ACHN renal
A498 renal = test system: A498 renal
LOX IMVI melanoma = test system: LOX IMVI melanoma
HCC-2998 colon = test system: HCC-2998 colon
HCT-15 colon = test system: HCT-15 colon
SK-MEL-2 melanoma = test system: SK-MEL-2 melanoma
OVCAR-4 ovarian = test system: OVCAR-4 ovarian
SF-295 CNS = test system: SF-295 CNS
NCI-H226 lung = test system: NCI-H226 lung

| SMILES | TGI (BT-549 breast) [µM] | TGI (T-47D breast) | TGI (U251 CNS) | TGI (MALME-3M melanoma) [µM] | TGI (ACHN renal) [µM] | TGI (A498 renal) [µM] | TGI (LOX IMVI melanoma) [µM] | TGI (HCC-2998 colon) | TGI (HCT-15 colon) [µM] | TGI (SK-MEL-2 melanoma) [µM] | TGI (OVCAR-4 ovarian) | TGI (SF-295 CNS) [µM] | TGI (NCI-H226 lung) [µM] | GI50 (HCT-15 colon) [nM] |
| --- | --- | --- | --- | --- | --- | --- | --- | --- | --- | --- | --- | --- | --- | --- |
| O=C1OCC2OC(=O)c3cc(O)c(O)c(O)c3-c3c(O)c(O)c(O)c4c3C(=O)OC(C2OC(=O)c2cc(O)c(O)c(O)c2-c2c1cc(O)c(O)c2O)C1OC(=O)C2C4=C(O)C(=O)C23Oc2cc(O)c4c(c2[C@H]13)O[C@H](c1ccc(O)c(O)c1)[C@@H](O)C4 (stereo partly drawn) | 83.3 | 74.8 µM | 42.7 µM | 72.2 | 56.6 | > 100 | 38.3 | > 100 µM | 44.7 | 64.4 | 43.5 µM | 53.5 | 35.6 |  |
| CC(=O)SC(C[N+](=O)[O-])c1ccc2c(c1)OCO2 (stereo not drawn) | 14.2 | 65.7 µM | 13 µM | 15.8 | 21.9 | 18.3 | 4.35 | 3.47 µM | 11.1 | 14.8 | 23.1 µM | 26.1 | 46 |  |
| O=Cc1ccc(-c2ccc(-c3ccc(CO)s3)o2)s1 | 67.9 | 62.3 µM | > 42.1 µM | > 66.8 | > 100 | 0.353 | 16.2 | 18.3 µM | > 100 | 97 | > 100 µM | > 87.9 | 0.291 |  |
| Cc1n[n+](Cc2ccccc2)c2sc(N)nn12 | > 100 | > 100 µM | > 100 µM | > 100 | > 100 | > 100 | > 100 |  | > 100 | > 100 | > 100 µM | > 100 | > 100 |  |
| O=C1C=C(Nc2ccc(S(=O)(=O)Nc3nccs3)cc2)c2ccccc2C1=O | 40.8 | > 100 µM | 48 µM | 48.7 | 63.5 | > 100 | 48.6 | 47.3 µM | 79.4 | 82.4 | > 100 µM | 32.3 | 70.1 |  |
| CCC1CC(O)c2c(O)c3c(c(O)c2C1O)C(=O)c1cccc(O)c1C3=O (stereo not drawn) (tested in a mixture with another compound) | 0.0704 | 0.18 µM and 0.0352 µM | 0.23 µM and 0.331 µM | 0.0547 |  | 0.03 | 0.0509 | 0.0478 µM and 0.0298 µM |  | 0.0457 | 0.0932 µM and 0.0821 µM |  | 0.0532 | 23.7 |
| COCCn1cnc2c(Cl)nc(Nc3ccccc3)nc21 | 99 | > 100 µM | > 100 µM |  | 36.4 | > 100 | 33.2 | 40 µM | 69.1 | 47.4 | 46.7 µM | > 100 | > 100 |  |
| NCCCNCCCCN1CCOC1=O | > 100 | > 100 µM | > 100 µM | > 100 | > 100 | > 100 | > 100 | > 100 µM | > 100 | > 100 |  | > 100 | > 100 |  |
| Cc1ccc(S(=O)(=O)C2=C(C(C)C)N=NC2(C)C)cc1 | > 100 | > 100 µM | > 100 µM |  | > 100 | > 100 | > 100 | > 100 µM | > 100 | > 100 | > 100 µM | > 100 | > 100 |  |
| CC(=O)O[C@@]12CO[C@@H]1CC(O)[C@@]1(C)C(=O)[C@H](O)C3=C(C)C(O)C[C@@](O)(C(OC(=O)c4ccccc4)C12)C3(C)C (stereo partly drawn) | > 100 | > 100 µM | 18.1 µM | > 100 | > 100 | > 100 | > 100 | 21.6 µM | > 100 |  | > 100 µM | > 51.1 | > 100 |  |
| COc1ccc(/C(Cl)=C(\C#N)c2ccc(OC)c(OC)c2)cc1OC | > 100 | > 100 µM | > 100 µM |  | > 100 | > 100 | > 100 | > 100 µM | > 100 | > 100 | > 100 µM | > 100 | > 100 |  |
| CN1CCCOC(c2ccc(Cl)cc2)O1 (stereo not drawn) | > 100 | > 100 µM | > 100 µM | > 100 | > 100 | > 100 | > 100 | > 100 µM | > 100 | > 100 | > 100 µM | > 100 | > 100 |  |
| CN1CCN(/C(N)=C(\C#N)C(=O)Nc2ccc(Cl)cc2)CC1 | > 100 | > 100 µM | > 100 µM |  | > 100 | > 100 | > 100 | > 100 µM | > 100 | > 100 |  | > 100 | > 100 |  |
| COc1ccc(C2c3cc4c(cc3OC(N3CCOCC3)C2C)OCO4)cc1 (stereo not drawn) | > 100 | 61.6 µM | 68.1 µM | 40.7 | > 100 | 34.8 | > 79.5 | 67 µM | > 100 | > 71 | > 100 µM | 67.5 |  |  |
| COCn1cnc2c(=O)nc(SC)n(-c3ccccc3)c21 | > 100 | > 100 µM |  | > 100 | > 100 | > 100 | > 100 | > 100 µM | > 100 | > 100 | > 100 µM | > 100 | > 100 |  |
| O=c1cc(NNc2cccc(Cl)c2)[nH]c(=O)[nH]1 | > 100 | > 100 µM | > 100 µM | 30.6 | > 100 | > 100 | 29.6 | > 100 µM | 31.4 | > 100 | > 100 µM |  | > 100 |  |
| CCOP(=O)(OCC)/C(C#N)=C/c1ccc(-c2cc(C(F)(F)F)cc(C(F)(F)F)c2)o1 | 44.9 | 40 µM | 24.4 µM |  | 50.2 | 24.8 | 15.9 | 22.2 µM | 20.7 | 38.8 |  | 11.8 | 32.6 |  |
| Cc1ccc(CSC(N)=Nc2ccccc2)cc1C | 50.8 | 45 µM | 31.6 µM | 34.2 | > 100 | 33.2 | 36.2 |  | 60.1 | 33.6 | 36.5 µM | > 100 | 43 |  |
